Source: US12678480B2, “Polypeptide applied to inhibition of intracellular lipid accumulation and synthesis method thereof” (NATIONAL CHENG KUNG UNIVERSITY, priority 2021, dated 2026)
Ends that are not written are not given here.

Assays:
[1] = tested on: human hepatocarcinoma cells (Huh7); experiment: fluorescence staining of lipid droplets in hepatocytes treated with the polypeptide; format: cell-based; conditions: Huh7, 400 μM oleic acid, peptide 10 μM, 20 μM; FIG. 4
[2] = tested on: human hepatocarcinoma cells (Huh7); conditions: Huh7, 400 μM oleic acid, peptide 10 μM, 20 μM; FIGS. 3A-3B

MEPGGARLRLQRTEGLGGERERQPCGDGNTETHRAPDLVQWYGRKKRRQRRRK-OH [polypeptide]
generation of intracellular lipid droplets (LD) [1]: can inhibit
level of total cholesterol (TC) in hepatocytes [2]: can reduce
level of triglyceride (TG) in hepatocytes [2]: can reduce
